Reference: patent publication US10150728B2, “Alkylene derivatives” (Shionogi & Co., Ltd., priority 2013, dated 2018)

molecular target: recombinant human ACC2 (Homo sapiens (Human), UniProt O00763); assay: Measurement of inhibitory activity on human ACC2 (MALDI-TOF MS, acetyl CoA to malonyl CoA conversion); format: biochemical; conditions: Table 154
From the text: Preparation 1: Preparation of Recombinant Human ACC2
After a cDNA encoding human ACC2 (27 amino acid residue to 2458 amino acid residues from the N-terminus) was cloned from human kidney cDNA library (Clontech), human ACC2 gene containing His-tag sequence at 5′ terminus was inserted into pFastBac1 (Invitrogen). Recombinant baculovirus was generated using Bac-to-Bac baculovirus expression system (Invitrogen) according to the manufacturer's protocol. To express human ACC2, Sf-9 cells were infected with recombinant baculovirus. After infected cells were disrupted, the filtrated lysate was subjected to Ni-affinity chromatography and anion-exchange chromatography. The fractions containing human ACC2 protein were pooled as recombinant human ACC2 solution.
The Measurement of Inhibitory Activity on Human ACC1 and the ACC2
Recombinant human ACC1 and recombinant human ACC2, which were prepared by the method mentioned above, were preincubated with assay buffer solution (50 mM HEPES-KOH (pH 7.4), 10 mM magnesium chloride, 6-10 mM potassium citrate, 4 mM reduced form of glutathione, 1.5 mg/ml bovine serum albumin) for one hour. Then, 0.2 μL of each this invention compound solution (in DMSO) were dispensed to 384-well microplate, 5 μL of the preincubated enzyme solution and 5 μL of substrate solution (50 mM HEPES-KOH (pH 7.4), 1 mM ATP, 0.8 mM acetyl CoA and 25-50 mM potassium bicarbonate) were added to microplate. After centrifugation and shaking, the reaction mixtures were incubated in a humidified box at room temperature for 1 to 3 hours. After the incubation, the enzyme reactions were stopped by the addition of EDTA. Then, after the samples were cocrystallized with CHCA (α-cyano-4-hydroxy cinnamic acid) matrices on MALDI target plate, by using the matrix assist laser […] time-of-flight mass spectrometer (MALDI-TOF MS), samples were measured in reflector negative mode. Deprotonated ions of acetyl CoA (AcCoA) of substrate and malonyl CoA (MalCoA) of the reaction product were detected, then, the conversion rates of acetyl CoA to malonyl CoA was calculated by the intensity of [MalCoA-H]−/(Intensity of [MalCoA-H]−+Intensity of [AcCoA-H]−) using each signal strength. […] In addition, potassium citrate concentrations in assay buffer solution, potassium hydrogen carbonate concentrations in substrate solution and incubation time were adjusted by each lot of enzyme.

Sequence of recombinant human ACC2 (O00763 27-2458): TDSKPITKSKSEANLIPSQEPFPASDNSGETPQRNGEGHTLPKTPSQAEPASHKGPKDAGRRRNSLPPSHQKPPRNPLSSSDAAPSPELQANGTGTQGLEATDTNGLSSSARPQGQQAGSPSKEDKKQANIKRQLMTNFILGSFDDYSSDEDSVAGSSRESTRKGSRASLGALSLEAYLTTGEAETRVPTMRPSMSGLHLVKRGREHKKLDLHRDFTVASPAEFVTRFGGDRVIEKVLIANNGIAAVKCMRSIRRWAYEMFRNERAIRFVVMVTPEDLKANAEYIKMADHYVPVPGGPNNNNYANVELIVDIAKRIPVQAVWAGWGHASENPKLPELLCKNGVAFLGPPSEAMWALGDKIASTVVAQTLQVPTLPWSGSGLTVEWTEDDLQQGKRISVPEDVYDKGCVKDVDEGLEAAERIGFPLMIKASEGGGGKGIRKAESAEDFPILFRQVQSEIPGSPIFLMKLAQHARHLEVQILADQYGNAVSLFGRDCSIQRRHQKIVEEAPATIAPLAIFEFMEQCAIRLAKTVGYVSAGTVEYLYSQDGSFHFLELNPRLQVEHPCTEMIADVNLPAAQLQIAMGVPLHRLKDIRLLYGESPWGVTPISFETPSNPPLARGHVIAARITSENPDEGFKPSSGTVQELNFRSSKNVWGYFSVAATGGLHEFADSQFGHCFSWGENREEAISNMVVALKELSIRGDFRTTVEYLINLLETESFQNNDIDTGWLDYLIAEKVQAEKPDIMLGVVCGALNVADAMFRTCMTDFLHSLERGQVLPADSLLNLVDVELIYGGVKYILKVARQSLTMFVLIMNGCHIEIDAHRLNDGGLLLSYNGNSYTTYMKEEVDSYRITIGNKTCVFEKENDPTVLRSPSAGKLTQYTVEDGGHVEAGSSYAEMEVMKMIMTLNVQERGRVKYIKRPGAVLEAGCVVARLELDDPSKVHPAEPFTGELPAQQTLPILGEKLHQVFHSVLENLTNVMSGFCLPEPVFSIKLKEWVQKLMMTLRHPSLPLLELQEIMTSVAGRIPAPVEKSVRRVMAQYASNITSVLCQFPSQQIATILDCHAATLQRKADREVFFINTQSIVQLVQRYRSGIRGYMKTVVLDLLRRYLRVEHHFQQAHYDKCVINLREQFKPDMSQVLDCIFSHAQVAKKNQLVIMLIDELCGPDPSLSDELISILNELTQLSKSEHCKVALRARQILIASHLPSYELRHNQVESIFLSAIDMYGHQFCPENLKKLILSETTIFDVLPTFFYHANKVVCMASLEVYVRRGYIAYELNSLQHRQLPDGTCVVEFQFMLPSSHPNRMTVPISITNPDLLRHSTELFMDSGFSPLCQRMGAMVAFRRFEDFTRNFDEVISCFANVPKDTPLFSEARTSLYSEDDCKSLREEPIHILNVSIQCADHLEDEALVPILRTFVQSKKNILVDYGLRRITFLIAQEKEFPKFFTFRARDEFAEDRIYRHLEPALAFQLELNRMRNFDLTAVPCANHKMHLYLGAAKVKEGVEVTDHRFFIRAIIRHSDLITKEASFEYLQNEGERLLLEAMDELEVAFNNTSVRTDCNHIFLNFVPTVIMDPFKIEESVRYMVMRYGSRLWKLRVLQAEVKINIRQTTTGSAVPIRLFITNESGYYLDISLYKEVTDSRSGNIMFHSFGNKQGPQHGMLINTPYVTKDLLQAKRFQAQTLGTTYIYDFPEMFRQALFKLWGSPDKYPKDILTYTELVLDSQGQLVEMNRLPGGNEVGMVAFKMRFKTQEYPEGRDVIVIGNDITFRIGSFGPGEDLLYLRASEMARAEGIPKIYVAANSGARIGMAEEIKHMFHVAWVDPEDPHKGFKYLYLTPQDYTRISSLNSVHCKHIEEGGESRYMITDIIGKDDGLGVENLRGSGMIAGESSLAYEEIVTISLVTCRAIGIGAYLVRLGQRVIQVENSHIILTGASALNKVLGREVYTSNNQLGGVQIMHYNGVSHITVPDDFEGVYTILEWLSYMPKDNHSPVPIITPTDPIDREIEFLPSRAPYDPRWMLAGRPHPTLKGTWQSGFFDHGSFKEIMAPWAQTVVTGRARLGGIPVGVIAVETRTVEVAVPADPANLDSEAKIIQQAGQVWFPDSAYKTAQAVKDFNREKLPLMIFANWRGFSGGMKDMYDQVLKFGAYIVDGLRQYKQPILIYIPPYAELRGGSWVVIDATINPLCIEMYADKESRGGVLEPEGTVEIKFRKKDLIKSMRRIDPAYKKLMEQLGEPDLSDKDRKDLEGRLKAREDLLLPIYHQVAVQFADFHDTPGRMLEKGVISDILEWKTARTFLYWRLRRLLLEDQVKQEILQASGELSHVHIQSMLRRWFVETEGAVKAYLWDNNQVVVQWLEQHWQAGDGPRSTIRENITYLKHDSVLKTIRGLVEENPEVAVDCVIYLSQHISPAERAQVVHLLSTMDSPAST

SMILES	IC50
CC(=O)N[C@@H](C)CO[C@H]1CC[C@H](Oc2ccc3nc(C(C)C)oc3c2Cl)CC1 [Compound I-064]	1120 nM
CC(=O)N[C@@H](C)COc1cnc(Oc2ccc(C(=O)NCC(C)C)c(F)c2F)cn1 [Compound I-095]	1050 nM
CC(=O)N[C@@H](C)CO[C@H]1CC[C@H](Oc2ncc(-c3ccccc3)cc2F)CC1 [Compound I-102]	44 nM
CCOc1nc2ccc(O[C@H]3C[C@H](OC[C@H](C)NC(C)=O)C3)c(F)c2s1 [Compound I-074]	85 nM
CCOc1nc2cc(Cl)c(Oc3cnc(OC[C@H](C)NC(C)=O)cn3)cc2s1 [Compound I-065]	89 nM
CC(=O)N[C@@H](C)COc1cnc(Oc2ccc3nc(C4CC4)sc3c2F)cn1 [Compound I-034]	49 nM
CC(=O)N[C@@H](C)COc1ccc(Oc2ccc3nc(C(C)C)sc3c2F)cn1 [Compound I-018]	75 nM
CC(=O)N[C@@H](C)COc1ccc(Oc2ccc3nc(C(C)C)sc3c2C#N)cn1 [Compound I-013]	395 nM
CC(=O)N[C@@H](C)CO[C@H]1CC[C@H](Oc2ccc3nc(C(C)C)sc3c2C#N)CC1 [Compound I-051]	84 nM

same assay, conditions: Tables 155-159

SMILES	IC50
CCOc1ccc2nc(O[C@H]3CC[C@H](OC[C@H](C)NC(C)=O)CC3)n(C3CC3)c2c1 [Compound I-568]	225 nM
CC(=O)N[C@@H](C)CO[C@H]1CC[C@H](Oc2cc3sc(OCC4CC4(F)F)nc3cn2)CC1 (stereo partly shown) [Compound I-220]	9 nM
CCOc1ccc2nc(O[C@H]3CC[C@H](OC[C@H](C)NC(C)=O)CC3)n(C(C)C)c2c1 [Compound I-562]	350 nM
CC(=O)N[C@@H](C)CO[C@H]1CC[C@H](Oc2nc3ccc(Oc4ccccn4)cc3n2C)CC1 [Compound I-590]	584 nM
CC(=O)N[C@@H](C)CO[C@H]1C[C@H](COc2nccc(OCC(F)(F)F)c2Cl)C1 [Compound I-326]	280 nM
CCCOc1nc2ccc(O[C@H]3CC[C@H](OC[C@H](C)NC(C)=O)CC3)nc2n1C [Compound I-505]	12 nM
CC(=O)N[C@@H](C)CO[C@H]1C[C@H](COc2nccc(OCC3(C)CC3)c2Cl)C1 [Compound I-370]	13 nM
CC(=O)N[C@@H](C)CO[C@H]1C[C@H](COc2ncnc(OCc3ncc(F)s3)c2Cl)C1 [Compound I-441]	12 nM
CC(=O)N[C@@H](C)CO[C@H]1CC[C@H](Oc2nc3ccc(OCC(F)F)cc3n2C)CC1 [Compound I-569]	86 nM
CC(=O)N[C@@H](C)CO[C@H]1C[C@H](COc2ccc3nc(OCC(C)(F)F)sc3n2)C1 [Compound I-193]	12 nM
CCCOc1nc2cc(F)c(O[C@H]3CC[C@H](OC[C@H](C)NC(C)=O)CC3)nc2n1C [Compound I-517]	14 nM
CC(=O)N[C@@H](C)CO[C@H]1C[C@H](COc2ccc3nc(OC4CCOCC4)sc3n2)C1 [Compound I-243]	28 nM
CC(=O)N[C@@H](C)CO[C@H]1CC[C@H](Oc2cc3sc(OC(C)C)nc3cc2Cl)CC1 [Compound I-114]	193 nM
CC(=O)N[C@@H](C)CO[C@H]1C[C@H](COc2nccc(OCC(C)(C)C)c2Cl)C1 [Compound I-372]	13 nM
C[C@@H](CO[C@H]1CC[C@H](Oc2ccc3nc(C(C)(F)F)sc3c2F)CC1)NC(=O)CO [Compound I-143]	120 nM
CC(=O)N[C@@H](C)CO[C@H]1C[C@H](COc2nccc(-c3ccc(C(F)(F)F)cc3)c2Cl)C1 [Compound I-320]	67 nM
C[C@@H](CC[C@H]1CC[C@H](Oc2nc3cnc(OC4CC4)c(Cl)c3n2C)CC1)NC(N)=O [Compound I-682]	5 nM
CC(=O)N[C@@H](C)CO[C@H]1C[C@H](COc2ccc3nc(OCCC(C)C)n(C)c3n2)C1 [Compound I-482]	87 nM
C[C@@H](CO[C@H]1CC[C@H](Oc2nc3c(F)cc(OC4CC4)c(F)c3n2C)CC1)NC(N)=O [Compound I-697]	4 nM
CC(=O)N[C@@H](C)CO[C@H]1CC[C@H](Oc2ncc3cc(OCC4CC4)ccc3n2)CC1 [Compound I-548]	124 nM
CC(=O)N[C@@H](C)CO[C@H]1C[C@H](COc2ccc3nc(O[C@H]4C[C@H](F)C4)sc3n2)C1 [Compound I-295]	12 nM
CC(=O)N[C@@H](C)CO[C@H]1C[C@H](COc2ncnc3c2ccn3Cc2ccccc2F)C1 [Compound I-472]	26 nM
CC(=O)N[C@@H](C)CO[C@H]1C[C@H](COc2ncnc3c2ccn3Cc2ccccn2)C1 [Compound I-432]	588 nM
CCOc1nc2ccc(OC[C@H]3C[C@H](OC[C@H](C)NC(C)=O)C3)cc2s1 [Compound I-111]	26 nM
CC(=O)N[C@@H](C)CC[C@H]1CC[C@H](Oc2ncc(-c3ncc(C(F)(F)F)cn3)cc2F)CC1 [Compound I-543]	14 nM
CC(=O)N[C@@H](C)CO[C@H]1C[C@H](COc2ccc3nc(O[C@@H]4CCOC4)sc3n2)C1 [Compound I-247]	17 nM

SMILES	IC50
C[C@@H](CO[C@H]1CC[C@H](Oc2nc3c(F)cc(OCC(F)F)c(F)c3n2C)CC1)NC(=O)COC(N)=O [Compound I-640]	110 nM
CC(=O)N[C@@H](C)CO[C@H]1C[C@H](COc2ccc3nc(Oc4ccc(F)nc4)sc3n2)C1 [Compound I-303]	68 nM
CC(=O)N[C@@H](C)CO[C@H]1CC[C@H](Oc2ncc3nc(OC(C)C)sc3c2F)CC1 [Compound I-240]	7 nM
CC(=O)N[C@@H](C)CC[C@H]1OC[C@H](Oc2nc3cnc(OCC(F)F)c(Cl)c3n2C)C[C@@H]1C [Compound I-644]	26 nM
CC(=O)N[C@@H](C)CO[C@H]1C[C@H](COc2ccc3nc(OCC(F)(F)F)sc3c2F)C1 [Compound I-152]	64 nM
CC(=O)N[C@@H](C)CO[C@H]1CC[C@H](Oc2ccc3nc(OCC(C)(C)OC4CCCCO4)sc3c2F)CC1 (stereo partly shown) [Compound I-131]	334 nM
CC(=O)N[C@@H](C)CO[C@H]1CC[C@H](Oc2ncc(-c3ncc(C(F)(F)F)cn3)cc2F)CC1 [Compound I-545]	46 nM
CC(=O)N[C@@H](C)CO[C@H]1C[C@H](COc2ccc3nc(OC4CC4)n(C)c3n2)C1 [Compound I-475]	540 nM
CC(=O)N[C@@H](C)CO[C@H]1CC[C@H](Oc2ccc3nc(OCC4(F)COC4)sc3c2F)CC1 [Compound I-120]	22 nM
CC(=O)N[C@@H](C)CO[C@H]1CC[C@H](Oc2nc3cnc(OC4CC(F)(F)C4)c(Cl)c3n2C)CC1 [Compound I-693]	8 nM
CC(=O)N[C@@H](C)CO[C@H]1CC[C@H](Oc2ncc3nc(OCC4CC4(F)F)sc3c2F)CC1 (stereo partly shown) [Compound I-253]	11 nM
CCOc1nc2ccc(OC[C@H]3C[C@@H](OC[C@H](C)NC(C)=O)C3)nc2n1C [Compound I-520]	315 nM
CC(=O)N[C@@H](C)CO[C@H]1CC[C@H](Oc2cc(C)c3nc(OCC4CC4)n(C)c3n2)CC1 [Compound I-509]	225 nM
C[C@@H](CO[C@H]1CC[C@H](Oc2nc3c(F)cc(OC4CC4)c(F)c3n2C)CC1)NC(=O)CC#N [Compound I-729]	4 nM
CC(=O)N[C@@H](C)CO[C@H]1CC[C@H](Oc2ccc3nc(N4CC(F)(F)C4)sc3n2)CC1 [Compound I-208]	8 nM
CC(=O)N[C@@H](C)CO[C@H]1C[C@H](COc2ncnc(OCc3ccc(F)cc3)c2F)C1 [Compound I-461]	4 nM
CCOC(=O)c1cc(C(=O)N[C@@H](C)CO[C@H]2CC[C@H](Oc3ncc(-c4ncc(F)cn4)cc3F)CC2)ccn1 [Compound I-539]	92 nM
CC(=O)N[C@@H](C)CO[C@H]1C[C@H](COc2ncnc(NC(=O)c3ccccc3)c2Cl)C1 [Compound I-452]	109 nM
CC(=O)N[C@@H](C)CO[C@H]1C[C@H](COc2nccc(NC(=O)C3CCCCC3)c2Cl)C1 [Compound I-433]	11 nM
CC(=O)N[C@@H](C)CO[C@H]1C[C@H](COc2ccc3nc(OCC(C)(C)O)sc3n2)C1 [Compound I-300]	165 nM
CC(=O)N[C@@H](C)CO[C@H]1CC[C@H](Oc2ccc3nc(OC(C)C)n(C)c3n2)CC1 [Compound I-494]	46 nM
CC(=O)N[C@@H](C)CO[C@H]1C[C@H](COc2ncnc(OCc3csc(Cl)n3)c2Cl)C1 [Compound I-411]	937 nM
C[C@@H](CO[C@H]1CC[C@H](Oc2nc3c(F)cc(OCC(F)F)c(F)c3n2C)CC1)NC(N)=O [Compound I-670]	11 nM
COc1c(-c2ccc(F)cc2)ccnc1OC[C@H]1C[C@H](OC[C@H](C)NC(C)=O)C1 [Compound I-379]	258 nM
CC(=O)N[C@@H](C)CO[C@H]1C[C@](F)(COc2cc3sc(C(C)C)nc3cn2)C1 [Compound I-174]	931 nM
COC(=O)N[C@@H](C)CO[C@H]1CC[C@H](Oc2ncc(-c3ncc(F)cn3)cc2F)CC1 [Compound I-541]	130 nM
